Here are results for 24 molecules from patent US20240199587A1, “HETEROCYCLIC COMPOUNDS” (Hoffmann-La Roche Inc., priority 2021, published 2024).

Each structure is given as a SMILES string.

What is called IC50 is the concentration that inhibits the measured activity by half. A higher IC50 goes with a need for much substance.

The target of the test is T1, MAGL (Homo sapiens, UniProt Q99685).
T1 sequence (Q99685 1-303): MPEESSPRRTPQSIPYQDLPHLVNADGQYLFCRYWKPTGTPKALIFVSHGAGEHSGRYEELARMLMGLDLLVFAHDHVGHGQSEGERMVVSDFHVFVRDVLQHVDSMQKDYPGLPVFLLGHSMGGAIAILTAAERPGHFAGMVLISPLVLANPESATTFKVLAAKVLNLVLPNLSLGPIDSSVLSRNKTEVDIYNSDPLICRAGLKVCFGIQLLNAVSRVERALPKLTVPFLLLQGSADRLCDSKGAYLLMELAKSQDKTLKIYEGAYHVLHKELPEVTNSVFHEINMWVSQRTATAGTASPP
The test can be described thus: 2-AG assay (MAGL inhibitory activity, hydrolysis of 2-arachidonoylglycerol to arachidonic acid followed by mass spectrometry). The test is classed as biochemical. Particulars: 8 μM 2-arachidonoylglycerol, 15 min pre-incubation, 30 min incubation at RT, RapidFire MS readout. The method, boiled down: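 Human MAGL ([…] final) pre-incubated 15 min at RT with compound in 50 mM TRIS, 1 mM EDTA, 0.01% Tween-20, 2.5% DMSO; 8 μM 2-AG then added for 30 min at RT. Acetonitrile quench with d8-arachidonic acid; arachidonic acid measured by RapidFire SPE–MS/MS, activity from arachidonic acid/d8 ratio.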
In turn, `O=C(N1CC2(CC(n3cnc(C4CC4)n3)C2)C1)N1CC2(C1)CN(C(=O)C(F)(F)F)C2` [Example 337, 1-[2-[6-(3-cyclopropyl-1,2,4-triazol-1-yl)-2-azaspiro[3.3]heptane-2-carbonyl]-2,6-diazaspiro[3.3]heptan-6-yl]-2,2,2-trifluoro-ethanone] showed an IC50 of 1.83 µM.
Take `O=C(O)c1ccccc1S(=O)(=O)N1CC2(CN(C(=O)N3CC4(CC(n5cnc(C6CC6)n5)C4)C3)C2)C1` [Example 338, 2-[[6-[6-(3-cyclopropyl-1,2,4-triazol-1-yl)-2-azaspiro[3.3]heptane-2-carbonyl]-2,6-diazaspiro[3.3]heptan-2-yl]sulfonyl]benzoic acid]: the IC50 worked out at 2.15 µM.
In the case of `O=C(N1CC2(CC(n3cnc(C4CC4)n3)C2)C1)N1CC2(C1)CN(S(=O)(=O)C1CS(=O)(=O)C1)C2` [Example 339, [6-(3-cyclopropyl-1,2,4-triazol-1-yl)-2-azaspiro[3.3]heptan-2-yl]-[2-(1,1-dioxothietan-3-yl)sulfonyl-2,6-diazaspiro[3.3]heptan-6-yl]methanone], the IC50 is 3.01 µM.
For the molecule `CNC(=O)C(c1ccc(F)cc1)N1CCN(C(=O)N2CC3(CC(n4cnc(C5CC5)n4)C3)C2)CC1` (stereo not drawn) [Example 340, 2-[4-[6-(3-cyclopropyl-1,2,4-triazol-1-yl)-2-azaspiro[3.3]heptane-2-carbonyl]piperazin-1-yl]-2-(4-fluorophenyl)-N-methyl-acetamide], the IC50 came out at 3.19 µM.
In the case of `O=C(N1CC2(CC(Cc3ccc(F)cc3F)C2)C1)N1CC2(CC(c3ccc(F)cc3)C2)C1` [Example 343, [6-[(2,4-difluorophenyl)methyl]-2-azaspiro[3.3]heptan-2-yl]-[6-(4-fluorophenyl)-2-azaspiro[3.3]heptan-2-yl]methanone] it was 0.491 µM; in that of `CS(=O)(=O)c1cc(Cl)ccc1-c1ccc(C2CN(C(=O)N3CC4(CC(c5cnc(C(F)(F)F)nc5)C4)C3)C2)cc1` [Example 344, [3-[4-(4-chloro-2-methylsulfonyl-phenyl)phenyl]azetidin-1-yl]-[6-[2-(trifluoromethyl)pyrimidin-5-yl]-2-azaspiro[3.3]heptan-2-yl]methanone], 0.00162 µM; in that of `O=C(N1CC2(CC(Cc3ccc(F)cc3F)C2)C1)N1CC2(CC(c3ccc(S(=O)(=O)C(F)(F)F)cc3)C2)C1` [Example 345, [6-[(2,4-difluorophenyl)methyl]-2-azaspiro[3.3]heptan-2-yl]-[6-[4-(trifluoromethylsulfonyl)phenyl]-2-azaspiro[3.3]heptan-2-yl]methanone], 0.0289 µM.
Consider `CS(=O)(=O)c1ccc(C2CC3(C2)CN(C(=O)N2CC4(CC(Cc5ccc(F)cc5F)C4)C2)C3)cc1` [Example 346, [6-[(2,4-difluorophenyl)methyl]-2-azaspiro[3.3]heptan-2-yl]-[6-(4-methylsulfonylphenyl)-2-azaspiro[3.3]heptan-2-yl]methanone], for which the midpoint of inhibition, the IC50, lay at 0.0157 µM.
On to `CS(=O)(=O)c1cc(C(F)(F)F)ccc1C1CC2(C1)CN(C(=O)N1CC3(CC(Cc4ccc(F)cc4F)C3)C1)C2` [Example 347, [6-[(2,4-difluorophenyl)methyl]-2-azaspiro[3.3]heptan-2-yl]-[6-[2-methylsulfonyl-4-(trifluoromethyl)phenyl]-2-azaspiro[3.3]heptan-2-yl]methanone], for which the IC50 came out at 0.833 µM.
On to `O=C(N1CC2(CC(Cc3ccc(Cl)cn3)C2)C1)N1CC2(C1)CN(c1cncc(F)c1)C2` [Example 348, [6-[(5-chloro-2-pyridyl)methyl]-2-azaspiro[3.3]heptan-2-yl]-[6-(5-fluoro-3-pyridyl)-2,6-diazaspiro[3.3]heptan-2-yl]methanone], for which the IC50 stood at 0.0663 µM.
With `CC(C)(C)Cn1nncc1-c1ccc(C2CN(C(=O)N3CC4(C3)CN(c3cncc(F)c3)C4)C2)cc1` [Example 349, [3-[4-[3-(2,2-dimethylpropyl)triazol-4-yl]phenyl]azetidin-1-yl]-[6-(5-fluoro-3-pyridyl)-2,6-diazaspiro[3.3]heptan-2-yl]methanone], the IC50 came out at 0.0119 µM.
`CS(=O)(=O)c1cc(Cl)ccc1-c1ccc(C2CN(C(=O)N3CC4(C3)CN(c3cncc(F)c3)C4)C2)cc1` [Example 350, [3-[4-(4-chloro-2-methylsulfonyl-phenyl)phenyl]azetidin-1-yl]-[6-(5-fluoro-3-pyridyl)-2,6-diazaspiro[3.3]heptan-2-yl]methanone] returned an IC50 of 0.0128 µM.
`O=C(N1CC2(CC(n3cnc(C(F)(F)F)n3)C2)C1)N1CC2(CN(Cc3ccc(S(=O)(=O)C(F)(F)F)cc3)C2)C1` [Example 353, [6-[[4-(trifluoromethylsulfonyl)phenyl]methyl]-2,6-diazaspiro[3.3]heptan-2-yl]-[6-[3-(trifluoromethyl)-1,2,4-triazol-1-yl]-2-azaspiro[3.3]heptan-2-yl]methanone] came in with an IC50 of 0.0024 µM. Compared with the last molecule, the IC50 is about 5.3-fold lower.
The molecule `CS(=N)(=O)c1cc(F)ccc1CC1CC2(C1)CN(C(=O)N1CC3(CC(n4cnc(C5(O)CC5)n4)C3)C1)C2` (stereo not drawn) [Example 354, [6-[[4-fluoro-2-(methylsulfonimidoyl)phenyl]methyl]-2-azaspiro[3.3]heptan-2-yl]-[6-[3-(1-hydroxycyclopropyl)-1,2,4-triazol-1-yl]-2-azaspiro[3.3]heptan-2-yl]methanone] returned an IC50 of 0.0192 µM. Against the preceding molecule, the IC50 is about 8-fold higher.
Take `Cc1cc(C2CC2)n(C23CC(C4CN(C(=O)N5CC6(CC(n7cnc(C8(O)CC8)n7)C6)C5)C4)(C2)C3)n1` [Example 355, [3-[3-(5-cyclopropyl-3-methyl-pyrazol-1-yl)-1-bicyclo[1.1.1]pentanyl]azetidin-1-yl]-[6-[3-(1-hydroxycyclopropyl)-1,2,4-triazol-1-yl]-2-azaspiro[3.3]heptan-2-yl]methanone]: it took 0.134 µM to reach half-maximal inhibition (IC50).
Then `Cc1cc(C)n(C23CC(C4CN(C(=O)N5CC6(CC(n7cnc(C8(O)CC8)n7)C6)C5)C4)(C2)C3)n1` [Example 356, [3-[3-(3,5-dimethylpyrazol-1-yl)-1-bicyclo[1.1.1]pentanyl]azetidin-1-yl]-[6-[3-(1-hydroxycyclopropyl)-1,2,4-triazol-1-yl]-2-azaspiro[3.3]heptan-2-yl]methanone], with 1.09 µM; and `O=C(N1CC2(CC(Cc3ccc4[nH]ncc4n3)C2)C1)N1CC2(CC(n3cnc(C4CC4)n3)C2)C1` [Example 357, [6-(3-cyclopropyl-1,2,4-triazol-1-yl)-2-azaspiro[3.3]heptan-2-yl]-[6-(1H-pyrazolo[4,3-b]pyridin-5-ylmethyl)-2-azaspiro[3.3]heptan-2-yl]methanone], with 0.00201 µM.
As for `O=C(N1CC2(CC(Cc3ccc(F)cc3F)C2)C1)N1CC2(CC(c3ccc(C(F)(F)F)nc3)C2)C1` [Example 358, [6-[(2,4-difluorophenyl)methyl]-2-azaspiro[3.3]heptan-2-yl]-[6-[6-(trifluoromethyl)-3-pyridyl]-2-azaspiro[3.3]heptan-2-yl]methanone], the midpoint of inhibition, the IC50, lay at 0.0306 µM.
Molecule `CS(=O)(=O)c1cc(CC2CC3(C2)CN(C(=O)N2CC4(CC(n5cnc(C6(O)CC6)n5)C4)C2)C3)cc(C(F)(F)F)c1` [Example 359, [6-[3-(1-hydroxycyclopropyl)-1,2,4-triazol-1-yl]-2-azaspiro[3.3]heptan-2-yl]-[6-[[3-methylsulfonyl-5-(trifluoromethyl)phenyl]methyl]-2-azaspiro[3.3]heptan-2-yl]methanone] returned an IC50 of 0.001 µM.
`O=C(N1CC2(CC(n3cnc(C4(O)CC4)n3)C2)C1)N1CC2(CC[C@@H](Cc3cccc(S(=O)(=O)C(F)(F)F)c3)C2)C1` [Example 360, [6-[3-(1-hydroxycyclopropyl)-1,2,4-triazol-1-yl]-2-azaspiro[3.3]heptan-2-yl]-[(6S)-6-[[3-(trifluoromethylsulfonyl)phenyl]methyl]-2-azaspiro[3.4]octan-2-yl]methanone] displayed an IC50 of 0.00013 µM.
Regarding `O=C(N1CC2(CC(n3cnc(C4(O)CC4)n3)C2)C1)N1CC2(CC[C@H](Cc3cccc(S(=O)(=O)C(F)(F)F)c3)C2)C1` [Example 361, [6-[3-(1-hydroxycyclopropyl)-1,2,4-triazol-1-yl]-2-azaspiro[3.3]heptan-2-yl]-[(6R)-6-[[3-(trifluoromethylsulfonyl)phenyl]methyl]-2-azaspiro[3.4]octan-2-yl]methanone], 0.00021 µM corresponded to half-maximal inhibition (IC50). Compared with the last molecule, the IC50 is about 1.6-fold higher.
In the case of `O=C(N1CC2(CC(n3cnc(C4(O)CC4)n3)C2)C1)N1CC2(CC[C@@H](Cc3ccc(S(=O)(=O)C(F)(F)F)cc3)C2)C1` [Example 362, [6-[3-(1-hydroxycyclopropyl)-1,2,4-triazol-1-yl]-2-azaspiro[3.3]heptan-2-yl]-[(6S)-6-[[4-(trifluoromethylsulfonyl)phenyl]methyl]-2-azaspiro[3.4]octan-2-yl]methanone] it was 0.00173 µM.
In turn, `O=C(N1CC2(CC(n3cnc(C4(O)CC4)n3)C2)C1)N1CC2(CC[C@H](Cc3ccc(S(=O)(=O)C(F)(F)F)cc3)C2)C1` [Example 363, [6-[3-(1-hydroxycyclopropyl)-1,2,4-triazol-1-yl]-2-azaspiro[3.3]heptan-2-yl]-[(6R)-6-[[4-(trifluoromethylsulfonyl)phenyl]methyl]-2-azaspiro[3.4]octan-2-yl]methanone] yielded an IC50 of 0.00135 µM.
`O=C(N1CC2(CC(Cc3ccc(S(=O)(=O)C4CC4)cc3)C2)C1)N1CC2(CC(n3cnc(C4(O)CC4)n3)C2)C1` [Example 364, [6-[(4-cyclopropylsulfonylphenyl)methyl]-2-azaspiro[3.3]heptan-2-yl]-[6-[3-(1-hydroxycyclopropyl)-1,2,4-triazol-1-yl]-2-azaspiro[3.3]heptan-2-yl]methanone] came in with an IC50 of 0.00184 µM.
